The target in data set [1] is T1, Glucagon-like peptide 2 receptor (Homo sapiens, UniProt O95838).
T1 sequence (O95838 whole entry): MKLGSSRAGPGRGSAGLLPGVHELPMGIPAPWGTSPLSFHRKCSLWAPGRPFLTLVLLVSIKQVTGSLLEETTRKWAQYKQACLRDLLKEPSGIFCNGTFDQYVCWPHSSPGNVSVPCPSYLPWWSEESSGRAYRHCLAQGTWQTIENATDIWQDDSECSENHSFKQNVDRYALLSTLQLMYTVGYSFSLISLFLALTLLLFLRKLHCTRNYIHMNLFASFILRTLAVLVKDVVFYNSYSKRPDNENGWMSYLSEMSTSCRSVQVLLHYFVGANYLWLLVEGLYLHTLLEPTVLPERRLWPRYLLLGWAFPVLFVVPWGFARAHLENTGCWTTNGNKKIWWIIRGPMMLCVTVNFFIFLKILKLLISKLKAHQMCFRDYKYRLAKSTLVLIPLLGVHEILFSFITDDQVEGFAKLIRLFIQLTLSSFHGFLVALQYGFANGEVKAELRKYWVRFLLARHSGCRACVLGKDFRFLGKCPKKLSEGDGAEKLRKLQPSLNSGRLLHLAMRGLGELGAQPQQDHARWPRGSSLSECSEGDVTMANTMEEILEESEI
Kind of data set: Agonist activity at human GLP2R expressed in HEK293 cells after 5 hrs by luciferase reporter gene assay. It is filed as cell-based. (A reporter such as luciferase makes a cellular process visible.)

Data set [2] deals with T2, Glucagon-like peptide 1 receptor (Homo sapiens, UniProt P43220). As to the kind of experiment: Agonist activity at human GLP1R expressed in HEK293 cells after 5 hrs by luciferase reporter gene assay. In kind it is cell-based.
In data set [3] the target is T2, Glucagon-like peptide 1 receptor. Kind of data set: Agonist activity at human GLP1R expressed in HEK293 cells at 30 nM after 5 hrs by luciferase reporter gene assay. In kind it is cell-based.
In a further data set the test system is HEK293. Kind of data set: Selectivity ratio of EC50 for human GLP1R expressed in HEK293 cells to EC50 for human GLP2R expressed in HEK293. It is filed as cell-based.
The target in data set [4] is Glucagon receptor (Homo sapiens) (UniProt P47871). As to the kind of experiment: Agonist activity at human GCGR expressed in HEK293 cells after 5 hrs by luciferase reporter gene assay. In kind it is cell-based.
A short description of data set [5]: Systemic clearance in Sprague-Dawley rat at 0.2 mg/kg, iv through cassette dosing measured up to 300 mins by LC/MS/MS analysis. Particulars: in vivo. In kind it is ADME, organism-based.

The term EC50 denotes the concentration that produces a half-maximal response. A higher EC50 goes with lower potency in that assay. Usually clearance stands for a measure of how efficiently the substance is removed, as volume per time.

Active and inactive are the calls of the source. No cut-off for these calls is given here.

Sequence of Glucagon receptor (Homo sapiens) (P47871 whole entry): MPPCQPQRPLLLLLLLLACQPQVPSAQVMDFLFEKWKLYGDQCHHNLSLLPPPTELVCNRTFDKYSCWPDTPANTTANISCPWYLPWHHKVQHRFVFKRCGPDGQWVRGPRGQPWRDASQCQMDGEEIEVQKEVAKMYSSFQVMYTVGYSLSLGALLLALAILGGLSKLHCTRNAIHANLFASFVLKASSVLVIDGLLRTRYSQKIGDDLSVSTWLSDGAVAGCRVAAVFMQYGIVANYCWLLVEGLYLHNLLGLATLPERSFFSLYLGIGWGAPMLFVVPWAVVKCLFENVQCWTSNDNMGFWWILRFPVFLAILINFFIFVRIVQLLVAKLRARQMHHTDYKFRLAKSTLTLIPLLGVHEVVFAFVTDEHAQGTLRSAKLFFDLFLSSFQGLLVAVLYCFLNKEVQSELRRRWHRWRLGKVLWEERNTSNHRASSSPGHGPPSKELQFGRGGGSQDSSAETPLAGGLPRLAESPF
T2 sequence (P43220 whole entry): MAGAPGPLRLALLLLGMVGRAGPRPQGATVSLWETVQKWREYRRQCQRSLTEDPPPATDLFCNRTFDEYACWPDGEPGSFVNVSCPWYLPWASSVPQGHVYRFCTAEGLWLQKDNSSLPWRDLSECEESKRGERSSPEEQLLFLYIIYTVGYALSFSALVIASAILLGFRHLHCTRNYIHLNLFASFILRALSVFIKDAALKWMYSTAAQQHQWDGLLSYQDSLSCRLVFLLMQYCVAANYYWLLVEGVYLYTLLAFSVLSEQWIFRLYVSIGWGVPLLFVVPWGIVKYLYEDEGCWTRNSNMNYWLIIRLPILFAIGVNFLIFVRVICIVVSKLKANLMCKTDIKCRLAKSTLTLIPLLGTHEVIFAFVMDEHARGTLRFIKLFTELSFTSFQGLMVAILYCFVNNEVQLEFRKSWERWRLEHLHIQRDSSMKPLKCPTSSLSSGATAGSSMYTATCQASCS

In the case of `CCCCC(NC(=O)[C@H](CCC(=O)O)NC(=O)[C@H](CC(=O)O)NC(=O)[C@H](CO)NC(=O)[C@H](Cc1ccccc1)NC(=O)[C@H](CO)NC(=O)CNC(=O)[C@H](CC(=O)O)NC(=O)CNC(=O)[C@@H](N)Cc1cnc[nH]1)C(=O)N[C@@H](Cc1cnc[nH]1)C(=O)N[C@H](C(=O)N[C@H](C(=O)N[C@@H](CC(C)C)C(=O)N[C@@H](CC(=O)O)C(=O)N[C@@H](CC(N)=O)C(=O)N[C@@H](CC(C)C)C(=O)N[C@@H](C)C(=O)N[C@@H](C)C(=O)N[C@@H](CCCNC(=N)N)C(=O)N[C@@H](CC(=O)O)C(=O)N[C@@H](Cc1ccccc1)C(=O)N[C@H](C(=O)N[C@@H](CC(N)=O)C(=O)N[C@@H](Cc1c[nH]c2ccccc12)C(=O)N[C@@H](CC(C)C)C(=O)N[C@H](C(=O)N[C@@H](CCC(N)=O)C(=O)N[C@H](C(=O)N[C@@H](CCCCN)C(N)=O)[C@@H](C)O)[C@@H](C)CC)[C@@H](C)CC)[C@@H](C)CC)[C@@H](C)O` (stereo partly drawn), the EC50 in data set [1] amounted to 0.44 nM; in data set [2] it was 300 nM. Besides, the Efficacy in data set [3] worked out at 35%. Moreover, the Ratio EC50 in the data set with HEK293 was 680. Moreover, in data set [4], the outcome was inactive.
With `CCCCC(NC(=O)[C@@H](CCC(=O)O)NC(=O)[C@@H](CC(=O)O)NC(=O)[C@@H](CO)NC(=O)[C@@H](Cc1ccccc1)NC(=O)[C@@H](CO)NC(=O)CNC(=O)[C@@H](CC(=O)O)NC(=O)CNC(=O)[C@@H](N)Cc1cnc[nH]1)C(=O)NC(Cc1ccc(Cl)cc1)C(=O)N[C@H](C(=O)N[C@H](C(=O)N[C@@H](CC(C)C)C(=O)N[C@@H](CC(=O)O)C(=O)N[C@@H](CC(N)=O)C(=O)N[C@@H](CC(C)C)C(=O)N[C@@H](C)C(=O)N[C@@H](C)C(=O)N[C@@H](CCCNC(=N)N)C(=O)N[C@@H](CC(=O)O)C(=O)N[C@@H](Cc1ccccc1)C(=O)N[C@H](C(=O)N[C@@H](CC(N)=O)C(=O)N[C@H](Cc1c[nH]c2ccccc12)C(=O)N[C@H](CC(C)C)C(=O)N[C@@H](C(=O)N[C@H](CCC(N)=O)C(=O)N[C@@H](C(=O)N[C@@H](CCCCN)C(N)=O)[C@H](C)O)[C@@H](C)CC)[C@H](C)CC)[C@H](C)CC)[C@@H](C)O` (stereo partly drawn), the half-maximal effective concentration (EC50) in data set [1] (hek293) is 0.16 nM; in data set [2] (hek293), 8.8 nM. Besides, in data set [3], the Efficacy came to 89%. For the same compound, in the data set with HEK293, the Ratio EC50 came out at 55. Besides, in data set [5], the clearance is 0.55 mL/min/kg. The outcome in data set [4] was inactive.
On to `CCCCC(NC(=O)[C@H](CCC(=O)O)NC(=O)[C@H](CC(=O)O)NC(=O)[C@H](CO)NC(=O)[C@H](Cc1ccccc1)NC(=O)[C@H](CO)NC(=O)CNC(=O)[C@H](CC(=O)O)NC(=O)CNC(=O)[C@@H](N)Cc1cnc[nH]1)C(=O)N[C@@H](Cc1ccccc1)C(=O)N[C@H](C(=O)N[C@H](C(=O)N[C@@H](CC(C)C)C(=O)N[C@@H](CC(=O)O)C(=O)N[C@@H](CC(N)=O)C(=O)N[C@@H](CC(C)C)C(=O)N[C@@H](C)C(=O)N[C@@H](C)C(=O)N[C@@H](CCCNC(=N)N)C(=O)N[C@@H](CC(=O)O)C(=O)N[C@@H](Cc1ccccc1)C(=O)N[C@H](C(=O)N[C@@H](CC(N)=O)C(=O)N[C@@H](Cc1c[nH]c2ccccc12)C(=O)N[C@@H](CC(C)C)C(=O)N[C@H](C(=O)N[C@@H](CCC(N)=O)C(=O)N[C@H](C(=O)N[C@@H](CCCCN)C(N)=O)[C@@H](C)O)[C@@H](C)CC)[C@@H](C)CC)[C@@H](C)CC)[C@@H](C)O` (stereo partly drawn), for which the values for the EC50 in data set [1] and in data set [2] were 0.15 nM and 16 nM, respectively. In addition, in data set [3], the Efficacy was found to be 94%. In addition, in the data set on HEK293, the Ratio EC50 is 100. The same compound registered a clearance in data set [5] of 1.8 mL/min/kg. Further, the outcome in data set [4] was inactive.
With `CCCCC(NC(=O)[C@H](CCC(=O)O)NC(=O)[C@H](CC(=O)O)NC(=O)[C@H](CO)NC(=O)[C@H](Cc1ccccc1)NC(=O)[C@H](CO)NC(=O)CNC(=O)[C@H](CC(=O)O)NC(=O)CNC(=O)[C@@H](N)Cc1cnc[nH]1)C(=O)N[C@H](Cc1c[nH]c2ccccc12)C(=O)N[C@H](C(=O)N[C@H](C(=O)N[C@@H](CC(C)C)C(=O)N[C@@H](CC(=O)O)C(=O)N[C@@H](CC(N)=O)C(=O)N[C@@H](CC(C)C)C(=O)N[C@@H](C)C(=O)N[C@@H](C)C(=O)N[C@@H](CCCNC(=N)N)C(=O)N[C@@H](CC(=O)O)C(=O)N[C@@H](Cc1ccccc1)C(=O)N[C@H](C(=O)N[C@@H](CC(N)=O)C(=O)N[C@@H](Cc1c[nH]c2ccccc12)C(=O)N[C@@H](CC(C)C)C(=O)N[C@H](C(=O)N[C@@H](CCC(N)=O)C(=O)N[C@H](C(=O)N[C@@H](CCCCN)C(N)=O)[C@@H](C)O)[C@@H](C)CC)[C@@H](C)CC)[C@@H](C)CC)[C@@H](C)O` (stereo partly drawn), the values for the EC50 in data set [1] and in data set [2] were 0.1 nM and 40 nM, respectively. The compound further displayed an Efficacy in data set [3] of 80%. Also, the Ratio EC50 in the data set with HEK293 stood at 400. This compound also had a clearance in data set [5] of 1.2 mL/min/kg. In data set [4], the outcome was inactive.
`CCCCC(NC(=O)[C@@H](CCC(=O)O)NC(=O)[C@@H](CC(=O)O)NC(=O)[C@@H](CO)NC(=O)[C@@H](Cc1ccccc1)NC(=O)[C@@H](CO)NC(=O)CNC(=O)[C@@H](CC(=O)O)NC(=O)CNC(=O)[C@@H](N)Cc1cnc[nH]1)C(=O)NC(Cc1ccc(-c2ccccc2)cc1)C(=O)N[C@@H](C(=O)N[C@@H](C(=O)N[C@H](CC(C)C)C(=O)N[C@H](CC(=O)O)C(=O)N[C@H](CC(N)=O)C(=O)N[C@H](CC(C)C)C(=O)N[C@H](C)C(=O)N[C@H](C)C(=O)N[C@H](CCCNC(=N)N)C(=O)N[C@H](CC(=O)O)C(=O)N[C@H](Cc1ccccc1)C(=O)N[C@@H](C(=O)N[C@H](CC(N)=O)C(=O)N[C@@H](Cc1c[nH]c2ccccc12)C(=O)N[C@@H](CC(C)C)C(=O)N[C@H](C(=O)N[C@@H](CCC(N)=O)C(=O)N[C@H](C(=O)N[C@H](CCCCN)C(N)=O)[C@@H](C)O)[C@H](C)CC)[C@@H](C)CC)[C@H](C)CC)[C@H](C)O` (stereo partly drawn): the concentration for a half-maximal effect (EC50) came to 0.18 nM in data set [1] and 21 nM in data set [2]. In addition, the Efficacy in data set [3] is 83%. Moreover, in the data set on HEK293, the Ratio EC50 came to 110. Further, the outcome in data set [4] was inactive.
For `CCCCC(NC(=O)[C@H](CCC(=O)O)NC(=O)[C@H](CC(=O)O)NC(=O)[C@H](CO)NC(=O)[C@H](Cc1ccccc1)NC(=O)[C@H](CO)NC(=O)CNC(=O)[C@H](CC(=O)O)NC(=O)CNC(=O)[C@@H](N)Cc1cnc[nH]1)C(=O)N[C@H](Cc1ccc(-c2ccccc2)cc1)C(=O)N[C@H](C(=O)N[C@H](C(=O)N[C@@H](CC(C)C)C(=O)N[C@@H](CC(=O)O)C(=O)N[C@@H](CC(N)=O)C(=O)N[C@@H](CC(C)C)C(=O)N[C@@H](C)C(=O)N[C@@H](C)C(=O)N[C@@H](CCCNC(=N)N)C(=O)N[C@@H](CC(=O)O)C(=O)N[C@@H](Cc1ccccc1)C(=O)N[C@H](C(=O)N[C@@H](CC(N)=O)C(=O)N[C@@H](Cc1c[nH]c2ccccc12)C(=O)N[C@@H](CC(C)C)C(=O)N[C@H](C(=O)N[C@@H](CCC(N)=O)C(=O)N[C@H](C(=O)N[C@@H](CCCCN)C(N)=O)[C@@H](C)O)[C@@H](C)CC)[C@@H](C)CC)[C@@H](C)CC)[C@@H](C)O` (stereo partly drawn), in that order: 1.9 nM, 39 nM, 108%, 20 and “inactive”.
For `CCCCC(NC(=O)[C@H](CCC(=O)O)NC(=O)[C@H](CC(=O)O)NC(=O)[C@H](CO)NC(=O)[C@H](Cc1ccccc1)NC(=O)[C@@H](CO)NC(=O)CNC(=O)[C@@H](CC(=O)O)NC(=O)CNC(=O)[C@@H](N)Cc1cnc[nH]1)C(=O)NC(CCC(C)C)C(=O)N[C@H](C(=O)N[C@H](C(=O)N[C@@H](CC(C)C)C(=O)N[C@@H](CC(=O)O)C(=O)N[C@@H](CC(N)=O)C(=O)N[C@@H](CC(C)C)C(=O)N[C@@H](C)C(=O)N[C@@H](C)C(=O)N[C@@H](CCCNC(=N)N)C(=O)N[C@@H](CC(=O)O)C(=O)N[C@H](Cc1ccccc1)C(=O)N[C@@H](C(=O)N[C@H](CC(N)=O)C(=O)N[C@@H](Cc1c[nH]c2ccccc12)C(=O)N[C@H](CC(C)C)C(=O)N[C@@H](C(=O)N[C@H](CCC(N)=O)C(=O)N[C@@H](C(=O)N[C@@H](CCCCN)C(N)=O)[C@H](C)O)[C@H](C)CC)[C@H](C)CC)[C@H](C)CC)[C@@H](C)O` (stereo partly drawn), in that order: 0.29 nM, 10 nM, 87%, 34 and “inactive”.

The record behind these values is ChEMBL document CHEMBL3822442, “Synthesis and Pharmacological Characterization of Novel Glucagon-like Peptide-2 (GLP-2) Analogues with Low Systemic Clearance” (J Med Chem, 2016).
